Assay results from US7087628B2, “N-heterocyclyl hydrazides as neurotrophic agents” (Ortho-McNeil Pharmaceutical, Inc., priority 2001, dated 2006).

Test system: Primary Rat Hippocampal Cells
Assay: Neurite outgrowth assay in primary rat hippocampal cells (MAP-2 immunofluorescence)
Assay type: cell-based
Conditions: neurite outgrowth response reported as percent of DMSO-treated control; MAP-2 fluorescence; cells 7 days in culture
Description: Hippocampal cells were dissected from the brains of embryonic day 18 rat pups and dissociated with trypsin (1 mg/mL) and trituration. Cells were seeded at 30,000 cells/well in 96-well plates filled with 100 μL MEM and 10% FBS. At 7 days in culture, cells were fixed with 4% paraformaldehyde and immuno-fluorescence was performed.
Cultures were incubated with normal horse serum (1:50; Vector Labs) for about 20 min, rinsed and then incubated with primary antibody, microtubule associated-protein 2 (anti-mouse MAP-2; 1:1000; Chemicon) for about 2 h at about RT. Following primary antibody, cultures were rinsed and incubated with fluorescein anti-mouse IgG (rat absorbed; 1:50; Vector Labs) for about 1 h. After fluorescein incubation, the cultures were rinsed and read in PBS on a fluorescent plate reader (excitation: 485 nm; emission: 530 nm). A compound was regarded as active if the neurite outgrowth response was greater than the mean DMSO-treated control response on the same plate. The response to test compound was reported as percent of DMSO-treated control. The signal-to-noise separation was consistent: the fluorescence from DMSO control wells is at least two-fold greater than blank wells.

Point of comparison: `CCC(C)(C)C(=O)C(=O)N1CCCC1C(=O)NNc1ncc(C(F)(F)F)cc1Cl` (stereo not shown) [(8)], “Rat Hippocampal Cell Response” value 106. Against it:
- CCC(C)(C)C(=O)C(=O)N1CCCC1C(=O)NNc1ccc2ccccc2n1 (stereo not shown) [(2)] — higher, 107
- CCC(C)(C)C(=O)C(=O)N1CCCC1C(=O)NNc1ccncc1Br (stereo not shown) [(3)] — the same, 106
- CCC(C)(C)C(=O)C(=O)N1CCCC1C(=O)NNc1cc(C)c2c(C)nn(C)c2n1 (stereo not shown) [(4)] — lower, 105
- CCC(C)(C)C(=O)C(=O)N1CCCC1C(=O)NNc1ccccn1 (stereo not shown) [Compound (1), 1-(3,3-Dimethyl-2-oxo-pentanoyl)-pyrrolidine-2-carboxylic acid N′-pyridine-2-yl-hydrazide] — higher, 157
- Cc1cc(C(F)(F)F)cc(NNC(=O)C2CCCCN2C(=O)C(=O)c2cccs2)n1 (stereo not shown) [Compound (9), 1-(2-Oxo-2-thiophen-2-yl-acetyl)piperidine-2-carboxylic acid N′-(6-methyl-4-trifluoromethyl-pyridin-2-yl)-hydrazide] — higher, 118
- O=C(NNc1ccccn1)[C@@H]1CCN1S(=O)(=O)Cc1ccccc1 [Compound (10), 2-Azetidinecarboxylic acid, 1-[(phenylmethyl)sulfonyl]-, 2-(2-pyridinyl)hydrazide, (2S)-] — higher, 115

`CCC(C)(C)C(=O)C(=O)N1CCCC1C(=O)NNc1c([N+](=O)[O-])c(C)nn1C` (stereo not shown) [(5)] was tested, and the “Rat Hippocampal Cell Response” value was under 100.
With `CCC(C)(C)C(=O)C(=O)N1CCCC1C(=O)NNc1cc(C(F)(F)F)cc(C)n1` (stereo not shown) [(6)] the “Rat Hippocampal Cell Response” value was under 100.
With `CCC(C)(C)C(=O)C(=O)N1CCCC1C(=O)NN(C)c1cc(C(F)(F)F)cc(C)n1` (stereo not shown) [(7)] the “Rat Hippocampal Cell Response” value was under 100.
